Literature values in patent US20110111022A1, “PHARMACEUTICAL FORMULATION” (priority 2008, published 2011).

Experiments:
[1] = concurrent administration of aliskiren and irbesartan
[2] = molecular target: hepatic cytochrome P450 3A4 (Homo sapiens, UniProt P08684)
Chain of hepatic cytochrome P450 3A4 (P08684 whole entry): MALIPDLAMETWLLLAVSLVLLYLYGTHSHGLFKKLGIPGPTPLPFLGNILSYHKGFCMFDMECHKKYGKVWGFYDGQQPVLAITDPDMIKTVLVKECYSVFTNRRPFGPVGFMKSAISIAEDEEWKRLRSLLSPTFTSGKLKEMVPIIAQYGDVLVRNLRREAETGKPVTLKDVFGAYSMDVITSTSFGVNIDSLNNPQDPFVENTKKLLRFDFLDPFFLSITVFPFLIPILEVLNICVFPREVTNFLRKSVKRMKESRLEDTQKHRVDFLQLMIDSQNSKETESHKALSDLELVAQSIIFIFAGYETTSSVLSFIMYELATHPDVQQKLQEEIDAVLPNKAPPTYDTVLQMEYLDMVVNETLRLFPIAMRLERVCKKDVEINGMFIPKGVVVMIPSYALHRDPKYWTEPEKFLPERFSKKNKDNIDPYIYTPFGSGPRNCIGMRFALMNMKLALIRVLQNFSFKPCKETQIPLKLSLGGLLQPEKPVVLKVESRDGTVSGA

COCCCOc1cc(C[C@@H](C[C@H](N)[C@@H](O)C[C@H](C(=O)NCC(C)(C)C(N)=O)C(C)C)C(C)C)ccc1OC [aliskiren, 2(S),4(S),5(S),7(S)—N-(3-amino-2,2-dimethyl-3-oxopropyl)-2,7-di(1-methylethyl)-4-hydroxy-5-amino-8-[4-methoxy-3-(3-methoxy-propoxy)phenyl]-octanamide]
decrease in blood aliskiren level [1]: 50% | metabolism in in vitro experiments [2]: metabolized by hepatic cytochrome P450 3A4 | solubility in water: easily soluble in water
